Test results: ChEMBL document CHEMBL4414674, “Paraconiothins A-J: Sesquiterpenoids from the Endophytic Fungus Paraconiothyrium brasiliense ECN258” (J Nat Prod, 2019)
The source made the active and inactive calls. The rule behind the calls is not given here.

Assays:
Assay type in all cases: cell-based
[1] = target: T1, Retinoic acid receptor alpha (Homo sapiens) (UniProt P10276); experiment: Inhibition of human RARalpha transfected in human HEK293 cells co-expressing CMV-beta galactosidase assessed as effect on beta-galactosidase activity at 50 uM after 48 hrs by luciferase reporter gene assay
T1 sequence (whole entry): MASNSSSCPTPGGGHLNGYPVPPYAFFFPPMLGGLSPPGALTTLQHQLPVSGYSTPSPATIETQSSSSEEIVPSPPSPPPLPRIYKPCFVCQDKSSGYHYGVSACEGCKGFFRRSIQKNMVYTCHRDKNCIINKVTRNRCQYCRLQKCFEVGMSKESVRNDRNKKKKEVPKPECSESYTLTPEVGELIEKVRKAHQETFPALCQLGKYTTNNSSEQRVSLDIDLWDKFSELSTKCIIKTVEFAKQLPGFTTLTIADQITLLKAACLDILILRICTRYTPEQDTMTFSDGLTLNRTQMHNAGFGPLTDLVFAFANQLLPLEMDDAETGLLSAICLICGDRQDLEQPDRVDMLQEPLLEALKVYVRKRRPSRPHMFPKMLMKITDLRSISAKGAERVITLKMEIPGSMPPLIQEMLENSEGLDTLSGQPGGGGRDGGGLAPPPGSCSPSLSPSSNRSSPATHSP

[2] = target: T2, Peroxisome proliferator-activated receptor gamma (Homo sapiens) (UniProt P37231); experiment: Inhibition of PPARgamma (unknown origin) transfected in human HEK293 cells co-expressing CMV-beta galactosidase assessed as effect on beta-galactosidase activity at 50 uM after 48 hrs by luciferase reporter gene assay
T2 sequence (whole entry): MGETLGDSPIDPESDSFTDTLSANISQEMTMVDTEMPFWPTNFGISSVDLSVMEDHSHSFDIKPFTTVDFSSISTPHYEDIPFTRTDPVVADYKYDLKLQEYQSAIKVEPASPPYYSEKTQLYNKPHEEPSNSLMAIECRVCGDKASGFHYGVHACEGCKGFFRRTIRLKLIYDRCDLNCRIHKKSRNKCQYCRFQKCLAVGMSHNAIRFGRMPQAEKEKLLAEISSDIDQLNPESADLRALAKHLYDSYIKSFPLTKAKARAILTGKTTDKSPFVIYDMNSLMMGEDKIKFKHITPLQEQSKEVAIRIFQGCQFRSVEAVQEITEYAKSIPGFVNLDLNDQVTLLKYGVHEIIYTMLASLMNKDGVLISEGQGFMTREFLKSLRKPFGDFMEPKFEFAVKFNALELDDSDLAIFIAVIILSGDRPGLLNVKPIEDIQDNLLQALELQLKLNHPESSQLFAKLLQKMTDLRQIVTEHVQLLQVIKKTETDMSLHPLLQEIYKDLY

[3] = target: T3, Peroxisome proliferator-activated receptor delta (Homo sapiens) (UniProt Q03181); experiment: Inhibition of PPARdelta (unknown origin) transfected in human HEK293 cells co-expressing CMV-beta galactosidase assessed as effect on beta-galactosidase activity at 50 uM after 48 hrs by luciferase reporter gene assay
T3 sequence (whole entry): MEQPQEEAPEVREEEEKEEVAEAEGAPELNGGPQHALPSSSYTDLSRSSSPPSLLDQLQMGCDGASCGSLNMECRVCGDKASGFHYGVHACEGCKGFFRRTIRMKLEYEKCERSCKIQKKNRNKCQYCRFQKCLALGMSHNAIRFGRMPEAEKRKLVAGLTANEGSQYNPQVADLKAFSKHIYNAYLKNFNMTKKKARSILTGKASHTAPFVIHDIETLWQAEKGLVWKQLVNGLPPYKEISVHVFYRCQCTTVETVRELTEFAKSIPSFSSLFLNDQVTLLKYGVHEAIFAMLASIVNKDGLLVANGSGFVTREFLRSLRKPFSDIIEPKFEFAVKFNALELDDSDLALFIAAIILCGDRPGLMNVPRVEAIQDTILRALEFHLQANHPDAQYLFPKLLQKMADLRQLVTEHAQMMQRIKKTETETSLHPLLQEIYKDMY

[4] = target: T4, Oxysterols receptor LXR-alpha (Homo sapiens) (UniProt Q13133); experiment: Inhibition of human LXRalpha transfected in human HEK293 cells co-expressing CMV-beta galactosidase assessed as inhibition on T0901317 response at 50 uM after 48 hrs by luciferase reporter gene assay
T4 sequence (whole entry): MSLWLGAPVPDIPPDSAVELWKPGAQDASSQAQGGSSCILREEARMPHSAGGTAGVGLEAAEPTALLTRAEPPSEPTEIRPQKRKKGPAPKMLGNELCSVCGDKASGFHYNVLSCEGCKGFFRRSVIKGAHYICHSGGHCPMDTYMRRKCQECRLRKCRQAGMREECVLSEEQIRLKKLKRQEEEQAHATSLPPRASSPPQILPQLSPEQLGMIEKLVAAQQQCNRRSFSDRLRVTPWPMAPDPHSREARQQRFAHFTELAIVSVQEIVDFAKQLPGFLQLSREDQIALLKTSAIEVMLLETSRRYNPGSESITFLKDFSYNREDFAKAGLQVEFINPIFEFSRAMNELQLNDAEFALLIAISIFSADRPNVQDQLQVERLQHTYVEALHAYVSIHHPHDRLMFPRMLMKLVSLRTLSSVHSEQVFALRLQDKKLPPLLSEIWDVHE

HEK293 = experiment: Cytotoxicity against human HEK293 cells

| Compound | inhibition [1] | inhibition [2] | inhibition [3] | inhibition [4] | Activity (HEK293) |
| --- | --- | --- | --- | --- | --- |
| C=C(CO)[C@H]1C[C@@]2(C)C(=C[C@@H]1O)C[C@H](O)C[C@@H]2C | inactive | inactive | inactive | – | – |
| C=C(CO)[C@H]1CC=C2CC[C@@H](O)[C@H](C)[C@@]2(C)C1 | inactive | inactive | inactive | Active | Non-Toxic |
| C=C(CO)c1ccc2c(c1C)[C@@H](C)C[C@H](O)C2=O | inactive | inactive | inactive | – | – |
| C=C(CO)[C@@]12O[C@@H]1[C@@]1(C)C(=C[C@@H]2OC(C)=O)CC[C@@H](O)[C@@H]1C (relative stereo) | inactive | inactive | inactive | – | – |
| C=C(CO)c1ccc([C@@H](O)[C@H](O)/C=C/C)c(C)c1 (relative stereo) | inactive | inactive | inactive | – | – |
| C=C(CO)[C@@H]1CC=C2C[C@@H](O)[C@H](O)[C@@H](C)[C@]2(C)C1 (relative stereo) | inactive | inactive | inactive | – | – |
| C=C(CO)[C@]12O[C@H]1[C@]1(C)C(=C[C@H]2OC(C)=O)CCC[C@H]1C | inactive | inactive | inactive | – | – |
| C=C(CO)[C@@]12O[C@@H]1[C@@]1(C)C(=C[C@@H]2OC(C)=O)C=C[C@@H](O)[C@@H]1C | inactive | inactive | inactive | – | – |
| C=C(CO)[C@@]12O[C@@H]1[C@@]1(C)C(=C[C@@H]2O)C=C[C@@H](O)[C@@H]1C | inactive | inactive | inactive | – | – |
| C=C(CO)[C@@]12O[C@@H]1[C@@]1(C)C(=CC2=O)C[C@H](O)C[C@@H]1C | inactive | inactive | inactive | – | – |
| C[C@H]1CC(=O)C=C2C=CC(=C(CO)CO)[C@H](O)[C@@]21C | inactive | inactive | inactive | – | – |
| C=C(CO)[C@@]12O[C@@H]1[C@@]1(C)C(=C[C@@H]2O)[C@H](O)CC[C@@H]1C | inactive | inactive | inactive | – | – |
| C=C(CO)c1ccc([C@@H](C)C[C@@H](O)CO)c(C)c1 (relative stereo) | inactive | inactive | inactive | Active | Non-Toxic |
